In patent US10131652B2, “Pyrimidinyloxy benzene derivatives as herbicides” (E. I. DU PONT DE NEMOURS AND COMPANY, priority 2014, dated 2018):
Read-outs that look alike come from different tables or passages of the source.

Tests used:
Experiment in all cases: Test F pre-/postemergence plant response
Format in all cases: in vivo
[1] = tested on: surinam grass (Brachiaria decumbens); settings: Urochloa decumbens, pre-emergence, scale 0 to 100, read-out: Plant response rating, Surinam Grass
Procedure, shortened: (§1)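 Visual control ratings were scored 0 (no effect) to 100 (complete control) versus untreated plants after 14–21 greenhouse days. Compounds, formulated in a surfactant-containing non-phytotoxic solvent, were applied both to silt loam at planting (preemergence) and to 1- to 4-leaf plants 2–18 cm tall (postemergence).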

[2] = tested on: dayflower (Virginia (VA) dayflower, Commelina virginica); settings: Commelina virginica, scale 0 to 100, read-out: Plant response rating, Dayflower, VA
Procedure, shortened: as §1

[3] = tested on: Italian ryegrass (Lolium multiflorum); settings: Lolium multiflorum, scale 0 to 100, read-out: Plant response rating, Ryegrass, Italian; for pest or weed control at 16 g/ha: 16 g ai/ha; for pest or weed control at 31 g/ha: 31 g ai/ha; for pest or weed control at 125 g/ha: 125 g ai/ha
Procedure, shortened: as §1

[4] = tested on: barnyardgrass (Echinochloa crus-galli); settings: Echinochloa crus-galli, scale 0 to 100, read-out: Plant response rating, Barnyardgrass
Procedure, shortened: as §1

[5] = tested on: morningglory (Ipomoea coccinea); settings: Ipomoea, pre-emergence, scale 0 to 100, read-out: Plant response rating, Morningglory
Procedure, shortened: as §1

kochia (Kochia scoparia) = settings: Bassia scoparia, pre-emergence, scale 0 to 100, read-out: Plant response rating, Kochia
Procedure, shortened: as §1

[6] = tested on: large (Lg) crabgrass (Digitaria sanguinalis); settings: Digitaria sanguinalis, pre-emergence, scale 0 to 100, read-out: Plant response rating, Crabgrass, Large
Procedure, shortened: as §1

[7] = tested on: lambsquarters (Chenopodium album); settings: Chenopodium album, pre-emergence, scale 0 to 100, read-out: Plant response rating, Lambsquarters
Procedure, shortened: as §1

[8] = tested on: field bindweed (Convolvulus arvensis); settings: Convolvulus arvensis, scale 0 to 100, read-out: Plant response rating, Field Bindweed
Procedure, shortened: as §1

[9] = tested on: wild poinsettia (Euphorbia heterophylla); settings: Euphorbia heterophylla, scale 0 to 100, read-out: Plant response rating, Poinsettia, Wild
Procedure, shortened: as §1

[10] = tested on: ragweed (common ragweed, Ambrosia elatior); settings: Ambrosia artemisiifolia, pre-emergence, scale 0 to 100, read-out: Plant response rating, Ragweed
Procedure, shortened: as §1

[11] = tested on: waterhemp (common waterhemp, Amaranthus rudis); settings: Amaranthus tuberculatus, scale 0 to 100, read-out: Plant response rating, Waterhemp
Procedure, shortened: as §1

[12] = tested on: giant foxtail (Setaria faberii); settings: Setaria faberi, pre-emergence, scale 0 to 100, read-out: Plant response rating, Foxtail, Giant
Procedure, shortened: as §1

[13] = tested on: green foxtail (Setaria viridis); settings: Setaria viridis, pre-emergence, scale 0 to 100, read-out: Plant response rating, Foxtail, Green
Procedure, shortened: as §1

[14] = tested on: johnsongrass (Sorghum halepense); settings: Sorghum halepense, pre-emergence, scale 0 to 100, read-out: Plant response rating, Johnsongrass
Procedure, shortened: as §1

[15] = tested on: yellow nutsedge (Cyperus esculentus); settings: Cyperus, pre-emergence, scale 0 to 100, read-out: Plant response rating, Nutsedge, Yellow
Procedure, shortened: as §1

soybean (Glycine max) = settings: Glycine max, scale 0 to 100, read-out: Plant response rating, Soybean
Procedure, shortened: as §1

[16] = post-emergence, 8 g ai/ha Postemergence
[17] = post-emergence, 16 g ai/ha Postemergence
[18] = post-emergence, 31 g ai/ha Postemergence
[19] = post-emergence, 62 g ai/ha Postemergence
[20] = post-emergence, 125 g ai/ha Postemergence
[21] = pre-emergence, 8 g ai/ha Preemergence
[22] = pre-emergence, 16 g ai/ha Preemergence
[23] = pre-emergence, 31 g ai/ha Preemergence
[24] = pre-emergence, 62 g ai/ha Preemergence
[25] = pre-emergence, 125 g ai/ha Preemergence

FC(F)c1cc(-c2ccccc2Oc2ncc(Br)cn2)no1 [Compound 62, 5-bromo-2-[2-[5-(difluoromethyl)-3-isoxazolyl]phenoxy]pyrimidine]
pest or weed control at 8 g/ha ([1]; 8 g ai/ha Preemergence): 0%
pest or weed control at 16 g/ha ([1]; 16 g ai/ha Preemergence): 0%
pest or weed control at 31 g/ha ([1]; 31 g ai/ha Preemergence): 15%
pest or weed control at 125 g/ha ([1]; 125 g ai/ha Preemergence): 10%
pest or weed control at 62 g/ha ([1]; Preemergence): 15%
pest or weed control at 8 g/ha [2, 16]: 0%
pest or weed control at 16 g/ha [2, 17]: 0%
pest or weed control at 31 g/ha [2, 18]: 5%
pest or weed control at 62 g/ha [2, 19]: 25%
pest or weed control at 125 g/ha [2, 20]: 65%
pest or weed control at 8 g/ha [2, 21]: 0%
pest or weed control at 16 g/ha [2, 22]: 0%
pest or weed control at 31 g/ha [2, 23]: 0%
pest or weed control at 62 g/ha [2, 24]: 30%
pest or weed control at 125 g/ha [2, 25]: 80%
pest or weed control at 8 g/ha [3, 16]: 0%
pest or weed control at 16 g/ha ([3]; post-emergence, Postemergence): 0%
pest or weed control at 31 g/ha ([3]; post-emergence, Postemergence): 0%
pest or weed control at 62 g/ha ([3]; post-emergence, 62 g ai/ha, Postemergence): 10%
pest or weed control at 125 g/ha ([3]; post-emergence, Postemergence): 10%
pest or weed control at 8 g/ha [3, 21]: 0%
pest or weed control at 16 g/ha ([3]; pre-emergence, Preemergence): 0%
pest or weed control at 31 g/ha ([3]; pre-emergence, Preemergence): 0%
pest or weed control at 125 g/ha ([3]; pre-emergence, Preemergence): 40%
pest or weed control at 62 g/ha ([3]; pre-emergence, Preemergence): 0%
pest or weed control at 8 g/ha [4, 16]: 10%
pest or weed control at 16 g/ha [4, 17]: 15%
pest or weed control at 31 g/ha [4, 18]: 20%
pest or weed control at 62 g/ha [4, 19]: 20%
pest or weed control at 125 g/ha [4, 20]: 20%
pest or weed control at 8 g/ha [4, 21]: 0%
pest or weed control at 16 g/ha [4, 22]: 0%
pest or weed control at 31 g/ha [4, 23]: 0%
pest or weed control at 62 g/ha [4, 24]: 0%
pest or weed control at 125 g/ha [4, 25]: 25%
pest or weed control at 8 g/ha ([5]; 8 g ai/ha Preemergence): 0%
pest or weed control at 16 g/ha ([5]; 16 g ai/ha Preemergence): 0%
pest or weed control at 31 g/ha ([5]; 31 g ai/ha Preemergence): 0%
pest or weed control at 125 g/ha ([5]; 125 g ai/ha Preemergence): 50%
pest or weed control at 62 g/ha ([5]; Preemergence): 0%
pest or weed control at 8 g/ha (kochia (Kochia scoparia); 8 g ai/ha Preemergence): 10%
pest or weed control at 31 g/ha (kochia (Kochia scoparia); 31 g ai/ha, Preemergence): 20%
pest or weed control at 125 g/ha (kochia (Kochia scoparia); 125 g ai/ha, Preemergence): 95%
pest or weed control at 62 g/ha (kochia (Kochia scoparia); Preemergence): 35%
pest or weed control at 8 g/ha ([6]; 8 g ai/ha Preemergence): 0%
pest or weed control at 16 g/ha ([6]; 16 g ai/ha Preemergence): 0%
pest or weed control at 31 g/ha ([6]; 31 g ai/ha Preemergence): 25%
pest or weed control at 62 g/ha ([6]; 62 g ai/ha Preemergence): 70%
pest or weed control at 125 g/ha ([6]; 125 g ai/ha Preemergence): 98%
pest or weed control at 8 g/ha ([7]; 8 g ai/ha Preemergence): 70%
pest or weed control at 16 g/ha ([7]; 16 g ai/ha, Preemergence): 90%
pest or weed control at 31 g/ha ([7]; 31 g ai/ha, Preemergence): 95%
pest or weed control at 125 g/ha ([7]; 125 g ai/ha, Preemergence): 100%
pest or weed control at 62 g/ha ([7]; Preemergence): 95%
pest or weed control at 8 g/ha [8, 16]: 40%
pest or weed control at 16 g/ha [8, 17]: 40%
pest or weed control at 31 g/ha [8, 18]: 35%
pest or weed control at 62 g/ha [8, 19]: 50%
pest or weed control at 125 g/ha [8, 20]: 75%
pest or weed control at 8 g/ha [8, 21]: 0%
pest or weed control at 16 g/ha [8, 22]: 0%
pest or weed control at 31 g/ha [8, 23]: 0%
pest or weed control at 62 g/ha [8, 24]: 0%
pest or weed control at 125 g/ha [8, 25]: 0%
pest or weed control at 8 g/ha [9, 16]: 25%
pest or weed control at 16 g/ha [9, 17]: 35%
pest or weed control at 31 g/ha [9, 18]: 40%
pest or weed control at 62 g/ha [9, 19]: 50%
pest or weed control at 125 g/ha [9, 20]: 50%
pest or weed control at 8 g/ha [9, 21]: 0%
pest or weed control at 16 g/ha [9, 22]: 0%
pest or weed control at 31 g/ha [9, 23]: 30%
pest or weed control at 125 g/ha [9, 25]: 35%
pest or weed control at 62 g/ha ([9]; pre-emergence, Preemergence): 25%
pest or weed control at 8 g/ha ([10]; 8 g ai/ha Preemergence): 0%
pest or weed control at 16 g/ha ([10]; 16 g ai/ha Preemergence): 20%
pest or weed control at 31 g/ha ([10]; 31 g ai/ha Preemergence): 25%
pest or weed control at 125 g/ha ([10]; 125 g ai/ha Preemergence): 35%
pest or weed control at 62 g/ha ([10]; Preemergence): 40%
pest or weed control at 8 g/ha [11, 16]: 80%
pest or weed control at 16 g/ha [11, 17]: 90%
pest or weed control at 31 g/ha [11, 18]: 100%
pest or weed control at 62 g/ha [11, 19]: 100%
pest or weed control at 125 g/ha [11, 20]: 100%
pest or weed control at 8 g/ha [11, 21]: 80%
pest or weed control at 16 g/ha [11, 22]: 85%
pest or weed control at 31 g/ha [11, 23]: 98%
pest or weed control at 125 g/ha [11, 25]: 100%
pest or weed control at 62 g/ha ([11]; pre-emergence, Preemergence): 100%
pest or weed control at 8 g/ha ([12]; 8 g ai/ha Preemergence): 0%
pest or weed control at 16 g/ha ([12]; 16 g ai/ha Preemergence): 15%
pest or weed control at 31 g/ha ([12]; 31 g ai/ha Preemergence): 35%
pest or weed control at 62 g/ha ([12]; 62 g ai/ha Preemergence): 65%
pest or weed control at 125 g/ha ([12]; 125 g ai/ha Preemergence): 75%
pest or weed control at 8 g/ha ([13]; 8 g ai/ha Preemergence): 0%
pest or weed control at 16 g/ha ([13]; 16 g ai/ha, Preemergence): 0%
pest or weed control at 31 g/ha ([13]; 31 g ai/ha, Preemergence): 10%
pest or weed control at 125 g/ha ([13]; 125 g ai/ha, Preemergence): 90%
pest or weed control at 62 g/ha ([13]; Preemergence): 40%
pest or weed control at 8 g/ha ([14]; 8 g ai/ha Preemergence): 0%
pest or weed control at 16 g/ha ([14]; 16 g ai/ha Preemergence): 0%
pest or weed control at 31 g/ha ([14]; 31 g ai/ha Preemergence): 20%
pest or weed control at 125 g/ha ([14]; 125 g ai/ha Preemergence): 40%
pest or weed control at 62 g/ha ([14]; Preemergence): 35%
pest or weed control at 8 g/ha ([15]; 8 g ai/ha Preemergence): 0%
pest or weed control at 16 g/ha ([15]; 16 g ai/ha Preemergence): 0%
pest or weed control at 31 g/ha ([15]; 31 g ai/ha Preemergence): 0%
pest or weed control at 125 g/ha ([15]; 125 g ai/ha Preemergence): 0%
pest or weed control at 62 g/ha ([15]; Preemergence): 0%
plant injury at 8 g/ha (soybean (Glycine max); [16]): 10%
plant injury at 16 g/ha (soybean (Glycine max); [17]): 20%
plant injury at 31 g/ha (soybean (Glycine max); [18]): 40%
plant injury at 62 g/ha (soybean (Glycine max); [19]): 65%
plant injury at 125 g/ha (soybean (Glycine max); [20]): 85%
plant injury at 8 g/ha (soybean (Glycine max); [21]): 0%
plant injury at 16 g/ha (soybean (Glycine max); [22]): 0%
plant injury at 31 g/ha (soybean (Glycine max); [23]): 0%
plant injury at 125 g/ha (soybean (Glycine max); [25]): 40%
plant injury at 62 g/ha (soybean (Glycine max); pre-emergence, Preemergence): 10%
